Reference: patent US10544103B2, “5-HT2 antagonists” (ANAMAR AB, priority 2015, dated 2020)
Values belong to the molecule of their own block, whether it stands above or below them.

Assays:
[1] = test system: bleomycin-induced pulmonary fibrosis; experiment: Bleomycin-induced pulmonary fibrosis model in mice; format: in vivo, mice (C57BL/6); conditions: 28 days
Description: Pulmonary fibrosis was induced in female C57BL/6 mice by intratracheal instillation of bleomycin in saline (50 uL, 0.5 mg/mL). Treatment was initiated at the day of intratracheal instillation and continued to day 28. The mice (8 animals/group) were orally treated twice daily with 25 or 75 mg/kg (R)-3-(2-Hydroxyphenyl)-4-methyl-4,5-dihydro-1H-pyrazole-1-carboximidamide (Example 36, Compound 3) dissolved in ddH2O. Nintedanib at 30 mg/kg in ddH2O, p.o., twice daily, was used as a positive control. Vehicle-treated bleomycin-challenged mice and vehicle-treated non-fibrotic mice served as controls. The animals were sacrificed after 28 days and the fibrotic area of the lung was determined by histological evaluation of Sirius Red-stained sections according to standard protocol. The collagen content of lung tissue was measured using the hydroxyproline collagen assay and the number of myofibroblasts was quantified by staining for α-smooth muscle actin (α-SMA) in paraffin embedded sections.

[2] = test system: Normal human lung fibroblasts (NHLF); experiment: Collagen production in normal human lung fibroblasts (PIP ELISA); format: cell-based; conditions: 1 and 10 μM; stimulation with 5 ng/mL TGF-β1 and 5-HT; 48 hours
Description: Normal human lung fibroblasts (NHLF, Lonza) were cultured in FGM-2 full medium (+FBS) according to manufacturer's instructions. When confluent, cells were seeded onto 24-well tissue culture plates at 100.000 cells/well (4 wells per condition), until reaching confluence. Once cells were confluent they were serum starved overnight in serum free FGM-2 medium. After 16 hours the serum free medium was removed and cells were treated with (R)-3-(2-hydroxyphenyl)-4-methyl-4,5-dihydro-1H-pyrazole-1-carboximidamide (Example 36, Compound 3) at 1 and 10 μM (vehicle ddH2O). The cells were then stimulated with 5 ng/mL human recombinant TGF-β1 alone or in combination with 1 μM or 10 μM 5-HT. All stimuli were prepared in serum free FGM-2 media (1 mL volume/well). Unstimulated cells received serum free FGM-2 medium alone. After 48 hours the supernatants were collected and stored at −80° C. Collagen production was analyzed in supernatants using procollagen type I C-peptide (PIP) ELISA (Takara Bio # MK1010). Cell viability was tested using a LDH assay (Abcam # Ab102526).

[3] = biological target: T1, 5-HT2B receptor (Homo sapiens, UniProt P41595); experiment: 5-HT2B receptor binding, 3H-LSD ligand displacement assay; conditions: for inhibition at 0.001 µM: 0.001 uM compound; for inhibition at 0.01 µM: 0.01 uM compound; for inhibition at 0.1 µM: 0.1 uM compound; for inhibition at 1 µM: 1 uM compound; for inhibition at 10 µM: 10 uM compound
T1 construct: host or cells: CHO-K1
T1 sequence (P41595 whole entry): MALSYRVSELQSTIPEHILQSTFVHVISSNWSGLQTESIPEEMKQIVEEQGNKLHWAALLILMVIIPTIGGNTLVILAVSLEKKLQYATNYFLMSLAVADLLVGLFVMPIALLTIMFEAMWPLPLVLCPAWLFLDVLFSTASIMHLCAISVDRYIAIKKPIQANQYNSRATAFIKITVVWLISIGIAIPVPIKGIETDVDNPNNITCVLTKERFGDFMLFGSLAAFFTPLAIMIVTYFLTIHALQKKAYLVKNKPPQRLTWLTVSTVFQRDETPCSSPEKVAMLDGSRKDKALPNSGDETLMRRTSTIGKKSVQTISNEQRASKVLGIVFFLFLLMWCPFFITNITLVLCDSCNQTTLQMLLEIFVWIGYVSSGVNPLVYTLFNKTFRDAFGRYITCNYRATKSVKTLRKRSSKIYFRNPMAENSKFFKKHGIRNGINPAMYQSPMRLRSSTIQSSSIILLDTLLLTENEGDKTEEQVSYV
Description: 5-HT2B receptor binding (performed at Eurofins Panlabs Taiwan, Ltd.) to human receptor protein expressed in CHO-K1 cells was determined in a ligand displacement assay using ^3H-lysergic acid diethylamide (LSD) as radioligand and ketanserine as a standard reference compound. Data is presented as % displacement of radioligand at indicated compound concentrations, see Table 1 and Table 2.

[4] = biological target: T1, 5-HT2B receptor; experiment: 5-HT2B receptor agonism, IP-1 accumulation in CHO-K1 cells without prior 5-HT stimulation; format: cell-based; conditions: % of IP-1 accumulation induced by 5-HT (1 uM)
Description: (§1) 5-HT2B receptor antagonism (performed at Eurofins Panlabs Taiwan, Ltd.) was determined in CHO-K1 cells expressing human receptor protein as inhibition of 5-HT (5 nM) stimulated IP-1 accumulation measured by HTRF quantitation. SB 206553 was used as a standard reference compound. The antagonistic response is expressed as % inhibition of the 5-HT induced effect.
5-HT2B receptor agonism (performed at Eurofins Panlabs Taiwan, Ltd.) was determined in the same model as described above in Ex. 117. without prior stimulation with 5-HT. The agonistic response is expressed as % of the IP-1 accumulation induced by 5-HT (1 uM) stimulation.

[5] = biological target: T1, 5-HT2B receptor; experiment: 5-HT2B receptor antagonism, inhibition of 5-HT stimulated IP-1 accumulation (HTRF) in CHO-K1 cells; format: cell-based; conditions: % inhibition of 5-HT (5 nM) induced effect
Description: as §1

[6] = test system: TNF-α plasma levels; experiment: Reduction of TNF-α plasma levels in LPS-induced acute inflammation in mice; format: in vivo, mice (BALB/c); conditions: for TNF-α: plasma 90 min after LPS
Description: Reduction of TNF-α plasma levels in the LPS-induced acute inflammation in mice was used to determine the in vivo anti-inflammatory properties of the compounds.
Mice (BALB/c, female, approx. 20 g, 8 mice/group) were treated with the test compound perorally (10 or 30 mg/kg in water) 30 min prior to LPS treatment (10 ug in saline, intraperitoneally, serotype 055:B5). Alternatively, the test compound was administered subcutaneously in the neck (10 or 30 mg/kg in 10% PEG400 in saline) 15 min prior to LPS treatment. Blood samples were collected 90 min after LPS treatment and plasma TNF-α concentrations were determined in duplicates by ELISA.

SMILES: COC(=O)c1ccc2c(c1)NC(=O)/C2=C(\Nc1ccc(N(C)C(=O)CN2CCN(C)CC2)cc1)c1ccccc1 [Nintedanib, reference compound]
Fibrotic area (A) ([1]; 30 mg/kg bid p.o.): reduced the fibrotic area
Hydroxyproline content (C) ([1]; 30 mg/kg bid p.o.): reduced the hydroxyproline content
Myofibroblast differentiation (B) ([1]; 30 mg/kg bid p.o.): inhibited myofibroblast differentiation

SMILES: C[C@@H]1CN(C(=N)N)N=C1c1ccccc1O (single isomer, unassigned) [Example 36]
Changes in any of the outcomes (fibrotic area, myofibroblasts, hydroxyproline) ([1]; 25 mg/kg bid oral): No statistically significant changes
Fibrotic area (A) ([1]; 75 mg/kg bid oral): reduced the fibrotic area
Hydroxyproline content (C) ([1]; 75 mg/kg bid oral): reduced the hydroxyproline content
Myofibroblast differentiation (B) ([1]; 75 mg/kg bid oral): inhibited myofibroblast differentiation
Production of collagens (in words) [2]: significantly reduced the production of collagens

SMILES: C[C@@H]1CN(C(=N)N)N=C1c1ccccc1O (single isomer, unassigned) [Example 38]
inhibition at 0.001 µM [3]: 19%
inhibition at 0.01 µM [3]: 76%
inhibition at 0.1 µM [3]: 98%
inhibition at 1 µM [3]: 102%
inhibition at 10 µM [3]: 104%
activation at 0.0001 µM [4]: -2%
activation at 0.001 µM [4]: -1%
activation at 0.01 µM [4]: -2%
activation at 0.1 µM [4]: 0%
activation at 1 µM [4]: -2%
inhibition at 0.0001 µM [5]: 23%
inhibition at 0.001 µM [5]: 27%
inhibition at 0.01 µM [5]: 75%
inhibition at 0.1 µM [5]: 100%
inhibition at 1 µM [5]: 102%

SMILES: CC1CN(C(=N)N)N=C1c1ccccc1O.Cl (centres unmarked) [Example 17, 3-(2-Hydroxyphenyl)-4-methyl-4,5-dihydro-1H-pyrazole-1-carboximidamide]
TNF-α ([6]; 10 mg/kg p.o. (water)): 4139 pg/mL
TNF-α ([6]; 10 mg/kg s.c. (PEG400/saline)): 2708 pg/mL
TNF-α ([6]; 30 mg/kg p.o. (water)): 4062 pg/mL
TNF-α ([6]; 30 mg/kg s.c. (PEG400/saline)): 1397 pg/mL
Effect on TNF-α plasma levels (in words) ([6]; p.o. administration): reduced TNF-α levels
Effect on TNF-α plasma levels (in words) ([6]; subcutaneous (s.c.) administration): dose-dependent effects
Anti-inflammatory effect compared with the reference compound ([6]; versus RS127545 (so in the source)): equal or higher anti-inflammatory effects
inhibition at 0.01 µM [3]: 54%
inhibition at 0.1 µM [3]: 91%
inhibition at 1 µM [3]: 100%
inhibition at 10 µM [3]: 100%
activation at 0.001 µM [4]: 1%
activation at 0.01 µM [4]: 3%
activation at 0.1 µM [4]: 7%
activation at 1 µM [4]: 2%
activation at 10 µM [4]: -2%
inhibition at 0.001 µM [5]: 31%
inhibition at 0.01 µM [5]: 70%
inhibition at 0.1 µM [5]: 96%
inhibition at 1 µM [5]: 100%
inhibition at 10 µM [5]: 103%

SMILES: CC(C)c1cc(-c2ccc(F)c3ccccc23)nc(N)n1 [RS127445, reference compound]
TNF-α ([6]; 10 mg/kg s.c. (PEG400/saline)): 3215 pg/mL

inhibition at 0.1 µM [3]: 59%
inhibition at 1 µM [3]: 96%
activation at 0.001 µM [4]: 3%
activation at 0.01 µM [4]: -5%
activation at 0.1 µM [4]: -9%
activation at 1 µM [4]: -6%
activation at 10 µM [4]: -13%
inhibition at 0.001 µM [5]: -6%
inhibition at 0.01 µM [5]: 10%
inhibition at 0.1 µM [5]: 41%
inhibition at 1 µM [5]: 104%
inhibition at 10 µM [5]: 113%
SMILES: N=C(NCc1ccccc1)N1CCC(c2ccccc2Cl)=N1 [Example 21, N-Benzyl-3-(2-chlorophenyl)-4,5-dihydro-1H-pyrazole-1-carboximidamide]

SMILES: Cl.N=C(N)N1CCC(c2ccccc2O)=N1 [Example 3, 3-(2-Hydroxyphenyl)-4,5-dihydro-1H-pyrazole-1-carboximidamide]
TNF-α ([6]; 10 mg/kg p.o. (water)): 5767 pg/mL
TNF-α ([6]; 30 mg/kg p.o. (water)): 3992 pg/mL
Effect on TNF-α plasma levels (in words) ([6]; p.o. administration): dose-dependently reduced TNF-α plasma levels
activation at 0.01 µM [4]: 1%
activation at 0.1 µM [4]: -2%
activation at 1 µM [4]: -2%
activation at 10 µM [4]: -7%
inhibition at 0.01 µM [5]: 14%
inhibition at 0.1 µM [5]: 38%
inhibition at 1 µM [5]: 96%
inhibition at 10 µM [5]: 103%

SMILES: C[C@@H]1CN(C(=N)NCc2ccccc2)N=C1c1cccc(Cl)c1O (single isomer, unassigned) [Example 76, (R)*—N-Benzyl-3-(3-chloro-2-hydroxyphenyl)-4-methyl-4,5-dihydro-1H-pyrazole-1-carboximidamide]
inhibition at 0.001 µM [3]: 91%
inhibition at 0.01 µM [3]: 101%
inhibition at 0.1 µM [3]: 103%
activation at 0.0001 µM [4]: 0%
activation at 0.001 µM [4]: 1%
activation at 0.01 µM [4]: 3%
activation at 0.1 µM [4]: -1%
inhibition at 0.0001 µM [5]: 79%
inhibition at 0.001 µM [5]: 95%
inhibition at 0.01 µM [5]: 99%
inhibition at 0.1 µM [5]: 99%
inhibition at 1 µM [5]: 95%
